Measured values from patent publication US20100144733A1, “Compounds, compositions and methods comprising heteroaromatic derivatives” (Institute for OneWorld Health, priority 2008, published 2010).
pIC50: −log10 of the molar value. Like-named read-outs stand apart in the source and are kept apart here.

Target: T1, CFTR (Homo sapiens, UniProt P13569)
T1 construct: endogenous in cells; host or cells: T84 human colonic cells (ECACC)
Experiment: T84 assay (FLIPR membrane potential dye, forskolin/IBMX-stimulated CFTR channel activity)
Assay type: cell-based
Settings: for pIC50: oxadiazole-containing compounds (a series), average of at least 2 runs unless annotated n = 1, read-out: IC50; for IC50: imidazole and triazole-containing compounds (Tables 13, 14, 14′), read-out: IC50 (μM) (T84 assay)
Experimental: (§1) For example, Human colonic T84 cells can be acquired from the European Collection of Cell Cultures (ECACC) and grown in standard culture conditions as described by the supplier. On the day before assay 25,000 T84 cells per well are plated into standard black walled, clear bottom 384-well assay plates in standard growth medium consisting of DMEM:F12 with 10% FBS and incubated overnight. On the day of the assay the plates are washed using a standard assay buffer (HBSS with 10 mM Hepes) and incubated for 15 minutes in serum free cell culture medium before the addition of a commercially available membrane potential sensitive fluorescent dye (FLIPRRed membrane potential dye, Molecular Devices Corporation). T84 cells are incubated with the FLIPRRed membrane potential dye for 45 minutes in the presence and absence of test compound before being transferred to a commercially available fluorescence imaging plate reader (FLIPR384, Molecular Devices Corporation). Fluorescence levels are monitored continuously every second for 150 seconds; after an initial 10 second baseline, CFTR channel activity is stimulated through the addition of 10 μM forskolin in the presence of 100 μM of the phosphodiesterase inhibitor iso-butyl-methylxanthine (IBMX). Addition of the forskolin leads to the activation of intracellular adenylyl cylase 1, elevating cAMP levels and results in the phosphorylation and opening of CFTR anion channels. CFTR channel opening causes chloride ion efflux and subsequent depolarization of the cells, which is measured by an increase in fluorescence. CFTR inihibitor compounds prevent cell depolarization and the associatred increase in fluorescence.
as §1, with “Human colonic” for “For example, Human colonic”, “T84 cells are acquired from” for “T84 cells can be acquired from”, “(ECACC) and are grown in” for “(ECACC) and grown in”, “10 μM Forskolin in the” for “10 μM forskolin in the”, “fluorescence. CFTR inhibitor compounds prevent” for “fluorescence. CFTR inihibitor compounds prevent”, “and the associated increase in” for “and the associatred increase in”

T1 sequence (P13569 whole entry): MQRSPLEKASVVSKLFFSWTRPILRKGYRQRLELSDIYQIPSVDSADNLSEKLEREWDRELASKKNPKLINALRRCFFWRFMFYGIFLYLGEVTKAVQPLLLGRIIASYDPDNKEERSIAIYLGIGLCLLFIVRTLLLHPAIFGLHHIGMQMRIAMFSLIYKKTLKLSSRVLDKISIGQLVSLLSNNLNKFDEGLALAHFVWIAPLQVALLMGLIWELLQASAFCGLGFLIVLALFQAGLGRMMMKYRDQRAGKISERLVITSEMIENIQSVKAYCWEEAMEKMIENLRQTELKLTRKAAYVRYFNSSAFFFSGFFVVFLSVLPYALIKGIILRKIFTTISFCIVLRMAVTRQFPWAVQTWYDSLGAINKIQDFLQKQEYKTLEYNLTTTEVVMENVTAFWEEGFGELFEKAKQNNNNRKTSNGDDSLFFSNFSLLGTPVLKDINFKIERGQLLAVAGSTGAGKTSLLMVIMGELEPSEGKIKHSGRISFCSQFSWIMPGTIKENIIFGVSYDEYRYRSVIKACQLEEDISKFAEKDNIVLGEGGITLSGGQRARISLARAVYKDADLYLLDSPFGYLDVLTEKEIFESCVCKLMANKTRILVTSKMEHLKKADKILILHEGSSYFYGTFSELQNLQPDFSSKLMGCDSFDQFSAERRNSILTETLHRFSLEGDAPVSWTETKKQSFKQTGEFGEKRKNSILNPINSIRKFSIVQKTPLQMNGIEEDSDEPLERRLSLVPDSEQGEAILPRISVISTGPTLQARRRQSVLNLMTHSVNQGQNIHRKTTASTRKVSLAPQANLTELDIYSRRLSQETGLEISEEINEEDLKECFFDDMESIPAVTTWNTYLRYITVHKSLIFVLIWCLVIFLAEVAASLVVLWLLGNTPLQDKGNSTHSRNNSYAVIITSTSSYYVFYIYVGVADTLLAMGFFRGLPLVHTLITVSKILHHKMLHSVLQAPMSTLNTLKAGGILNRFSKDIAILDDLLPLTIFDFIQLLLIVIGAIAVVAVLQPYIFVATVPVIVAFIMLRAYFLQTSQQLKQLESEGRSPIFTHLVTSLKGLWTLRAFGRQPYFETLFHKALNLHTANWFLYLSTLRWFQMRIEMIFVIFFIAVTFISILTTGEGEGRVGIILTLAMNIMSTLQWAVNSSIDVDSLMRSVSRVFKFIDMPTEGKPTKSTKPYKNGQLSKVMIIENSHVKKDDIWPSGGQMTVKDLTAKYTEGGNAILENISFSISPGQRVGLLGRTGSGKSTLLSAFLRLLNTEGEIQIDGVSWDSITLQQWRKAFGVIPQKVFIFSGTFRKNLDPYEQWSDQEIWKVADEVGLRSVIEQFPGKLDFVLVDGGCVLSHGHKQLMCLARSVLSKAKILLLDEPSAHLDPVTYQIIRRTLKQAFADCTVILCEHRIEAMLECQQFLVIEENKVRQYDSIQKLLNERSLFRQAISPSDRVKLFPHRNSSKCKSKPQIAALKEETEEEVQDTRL

SMILES	pIC50	IC50
O=C(NCc1cccc(-c2ccccc2)c1)c1ncn(-c2cc(Cl)c(O)c(Cl)c2)n1 [25i, N-(biphenyl-3-ylmethyl)-1-(3,5-dichloro-4-hydroxyphenyl)-1H-1,2,4-triazole-3-carboxamide]		3.7 µM
CN(C)c1cccc(CNC(=O)c2ncn(-c3cc(Cl)c(O)c(Cl)c3)n2)c1 [26i, 1-(3,5-dichloro-4-hydroxyphenyl)-N-(3-(dimethylamino)benzyl)-1H-1,2,4-triazole-3-carboxamide]		3.92 µM
O=C(NCc1cc(Cl)ccc1F)c1ncn(-c2cc(Cl)c(O)c(Cl)c2)n1 [27i, N-(5-chloro-2-fluorobenzyl)-1-(3,5-dichloro-4-hydroxyphenyl)-1H-1,2,4-triazole-3-carboxamide]		24.4 µM
CC(C)Oc1ccc(CNC(=O)c2ncn(-c3cc(Cl)c(O)c(Cl)c3)n2)cc1 [28i, 1-(3,5-dichloro-4-hydroxyphenyl)-N-(4-isopropoxybenzyl)-1H-1,2,4-triazole-3-carboxamide]		16.8 µM
O=C(NCc1ccc(F)c(C(F)(F)F)c1)c1ncn(-c2cc(Cl)c(O)c(Cl)c2)n1 [29i, 1-(3,5-dichloro-4-hydroxyphenyl)-N-(4-fluoro-3-(trifluoromethyl)benzyl)-1H-1,2,4-triazole-3-carboxamide]		7.52 µM
O=C(NCc1ccccc1Cl)c1ncn(-c2cc(Cl)c(O)c(Cl)c2)n1 [30i, N-(2-chlorobenzyl)-1-(3,5-dichloro-4-hydroxyphenyl)-1H-1,2,4-triazole-3-carboxamide]		27.8 µM
CC(NC(=O)c1ncn(-c2cc(Cl)c(O)c(Cl)c2)n1)c1ccc(Br)cc1 (centres unmarked) [32i, N-(1-(4-bromophenyl)ethyl)-1-(3,5-dichloro-4-hydroxyphenyl)-1H-1,2,4-triazole-3-carboxamide]		10.3 µM
O=C(Nc1ccc(Oc2ccc(C(F)(F)F)cc2)cc1)c1nc(-c2cc(Br)c(O)c(Br)c2)no1 [34a, 3-(3,5-dibromo-4-hydroxyphenyl)-N-(4-(4-(trifluoromethyl)phenoxy)phenyl)-1,2,4-oxadiazole-5-carboxamide]	4.74	
O=C(NCc1ccccc1C(F)(F)F)c1ncn(-c2cc(Cl)c(O)c(Cl)c2)n1 [35i, 1-(3,5-dichloro-4-hydroxyphenyl)-N-(2-(trifluoromethyl)benzyl)-1H-1,2,4-triazole-3-carboxamide]		23.8 µM
O=C(NCc1cccc(N2CCCCC2)c1)c1ncn(-c2cc(Cl)c(O)c(Cl)c2)n1 [38i, 1-(3,5-dichloro-4-hydroxyphenyl)-N-(3-(piperidin-1-yl)benzyl)-1H-1,2,4-triazole-3-carboxamide]		5.61 µM
O=C(NCc1ccc(-c2ccc(C(F)(F)F)cn2)cc1)c1ncn(-c2cc(Cl)c(O)c(Cl)c2)n1 [39i, 1-(3,5-dichloro-4-hydroxyphenyl)-N-(4-(5-(trifluoromethyl)pyridin-2-yl)benzyl)-1H-1,2,4-triazole-3-carboxamide]		2.51 µM
O=C(NCc1ccccc1OC(F)F)c1ncn(-c2cc(Cl)c(O)c(Cl)c2)n1 [41i, 1-(3,5-dichloro-4-hydroxyphenyl)-N-(2-(difluoromethoxy)benzyl)-1H-1,2,4-triazole-3-carboxamide]		22.4 µM
O=C(NCc1ccc(F)c(F)c1)c1ncn(-c2cc(Cl)c(O)c(Cl)c2)n1 [42i, 1-(3,5-dichloro-4-hydroxyphenyl)-N-(3,4-difluorobenzyl)-1H-1,2,4-triazole-3-carboxamide]		15.9 µM

The remaining lines, values ahead:

pIC50	IC50	SMILES
4.88		O=C(Nc1cccc(OC(F)(F)F)c1)c1nc(-c2cc(Br)c(O)c(Br)c2)no1 [24a, 3-(3,5-Dibromo-4-hydroxyphenyl)-N-(3-(trifluoromethoxy)phenyl)-1,2,4-oxadiazole-5-carboxamide]
4.96		CC(C)(C)c1ccc(N2CCN(C(=O)c3nc(-c4cc(Br)c(O)c(Br)c4)no3)CC2)cc1 [25a, (4-(4-tert-butylphenyl)piperazin-1-yl)(3-(3,5-dibromo-4-hydroxyphenyl)-1,2,4-oxadiazol-5-y1)methanone]
4.84		COc1ccccc1N1CCN(C(=O)c2nc(-c3cc(Br)c(O)c(Br)c3)no2)CC1 [26a, (3-(3,5-dibromo-4-hydroxyphenyl)-1,2,4-oxadiazol-5-yl)(4-(2-methoxyphenyl)piperazin-1-yl)methanone]
4.83		O=C(NCc1cccc(C(F)(F)F)c1)c1nc(-c2cc(Br)c(O)c(Br)c2)no1 [27a, 3-(3,5-dibromo-4-hydroxyphenyl)-N-(3-(trifluoromethyl)benzyl)-1,2,4-oxadiazole-5-carboxamide]
4.81		CN(Cc1ccccc1)C(=O)c1nc(-c2cc(Br)c(O)c(Br)c2)no1 [28a, N-benzyl-3-(3,5-dibromo-4-hydroxyphenyl)-N-methyl-1,2,4-oxadiazole-5-carboxamide]
4.86		O=C(NCc1ccc(OC(F)(F)F)cc1)c1nc(-c2cc(Br)c(O)c(Br)c2)no1 [29a, 3-(3,5-Dibromo-4-hydroxyphenyl)-N-(4-(trifluoromethoxy)benzyl)-1,2,4-oxadiazole-5-carboxamide]
4.79		O=C(NCc1ccc(Cl)c(C(F)(F)F)c1)c1nc(-c2cc(Br)c(O)c(Br)c2)no1 [30a, N-(4-chloro-3-(trifluoromethyl)benzyl)-3-(3,5-dibromo-4-hydroxyphenyl)-1,2,4-oxadiazole-5-carboxamide]
4.77		O=C(c1nc(-c2cc(Br)c(O)c(Br)c2)no1)N1CCN(c2ccc(F)cc2F)CC1 [31a]
4.76		O=C(c1nc(-c2cc(Br)c(O)c(Br)c2)no1)N1CCN(c2cccc(F)c2)CC1 [32a, (3-(3,5-dibromo-4-hydroxyphenyl)-1,2,4-oxadiazol-5-yl)(4-(3-fluorophenyl)piperazin-1-yl)methanone]
4.75		O=C(NCc1ccccc1)c1nc(-c2cc(Br)c(O)c(Br)c2)no1 [33a, N-benzyl-3-(3,5-dibromo-4-hydroxyphenyl)-1,2,4-oxadiazole-5-carboxamide]
4.72		O=C(NCc1ccccc1F)c1nc(-c2cc(Br)c(O)c(Br)c2)no1 [35a, 3-(3,5-dibromo-4-hydroxyphenyl)-N-(2-fluorobenzyl)-1,2,4-oxadiazole-5-carboxamide]
4.67		O=C(NCc1ccccc1C(F)(F)F)c1nc(-c2cc(Br)c(O)c(Br)c2)no1 [36a, 3-(3,5-dibromo-4-hydroxyphenyl)-N-(2-(trifluoromethyl)benzyl)-1,2,4-oxadiazole-5-carboxamide]
4.64		O=C(NCc1ccc(C(F)(F)F)cc1)c1nc(-c2cc(Br)c(O)c(Br)c2)no1 [37a, 3-(3,5-dibromo-4-hydroxyphenyl)-N-(4-(trifluoromethyl)benzyl)-1,2,4-oxadiazole-5-carboxamide]
5.60		CN(Cc1cccc(OC(F)(F)F)c1)C(=O)c1nc(-c2cc(Br)c(O)c(Br)c2)no1 [38a, 3-(3,5-dibromo-4-hydroxyphenyl)-N-methyl-N-(3-(trifluoromethoxy)benzyl)-1,2,4-oxadiazole-5-carboxamide]
4.57		O=C(O)COc1c(Br)cc(-c2noc(C(=O)N3CCC(Cc4ccccc4)CC3)n2)cc1Br [39a, 2-(4-(5-(4-benzylpiperidine-1-carbonyl)-1,2,4-oxadiazol-3-yl)-2,6-dibromophenoxy) acetic acid]
4.57		O=C(NCc1ccc(Cl)cc1)c1nc(-c2cc(Br)c(O)c(Br)c2)no1 [40a, N-(4-chlorobenzyl)-3-(3,5-dibromo-4-hydroxyphenyl)-1,2,4-oxadiazole-5-carboxamide]
